Like-named read-outs stand apart in the source and are kept apart here.
Legend:
h5-HT2A receptor [1] = target: T1, h5-HT2A receptor (Homo sapiens, UniProt P28223); details: data not shown
human D4.4 receptor = target: T2, human D4.4 receptor (Homo sapiens, UniProt P21917); format: binding; details: test drugs up to 10 µM; words give concentration range, 'low' = low nanomolar
T2 sequence (P21917 1-419): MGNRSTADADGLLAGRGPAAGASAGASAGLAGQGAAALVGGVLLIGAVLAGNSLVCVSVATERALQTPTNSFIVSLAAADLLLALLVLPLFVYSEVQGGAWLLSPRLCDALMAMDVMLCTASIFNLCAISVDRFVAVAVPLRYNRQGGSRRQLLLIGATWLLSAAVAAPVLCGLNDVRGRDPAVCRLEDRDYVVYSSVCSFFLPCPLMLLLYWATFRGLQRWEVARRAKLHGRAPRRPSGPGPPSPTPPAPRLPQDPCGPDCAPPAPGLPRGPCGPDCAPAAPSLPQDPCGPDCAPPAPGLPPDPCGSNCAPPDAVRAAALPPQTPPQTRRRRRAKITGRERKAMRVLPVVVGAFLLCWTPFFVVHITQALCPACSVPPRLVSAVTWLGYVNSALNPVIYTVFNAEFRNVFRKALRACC

hNET [2] = target: T3, hNET (Homo sapiens, UniProt P23975); assay: Superfusion release of preloaded [3H]NE from HEK-hNET cells; format: cell-based
T3 sequence (P23975 whole entry, the tested form may be a part): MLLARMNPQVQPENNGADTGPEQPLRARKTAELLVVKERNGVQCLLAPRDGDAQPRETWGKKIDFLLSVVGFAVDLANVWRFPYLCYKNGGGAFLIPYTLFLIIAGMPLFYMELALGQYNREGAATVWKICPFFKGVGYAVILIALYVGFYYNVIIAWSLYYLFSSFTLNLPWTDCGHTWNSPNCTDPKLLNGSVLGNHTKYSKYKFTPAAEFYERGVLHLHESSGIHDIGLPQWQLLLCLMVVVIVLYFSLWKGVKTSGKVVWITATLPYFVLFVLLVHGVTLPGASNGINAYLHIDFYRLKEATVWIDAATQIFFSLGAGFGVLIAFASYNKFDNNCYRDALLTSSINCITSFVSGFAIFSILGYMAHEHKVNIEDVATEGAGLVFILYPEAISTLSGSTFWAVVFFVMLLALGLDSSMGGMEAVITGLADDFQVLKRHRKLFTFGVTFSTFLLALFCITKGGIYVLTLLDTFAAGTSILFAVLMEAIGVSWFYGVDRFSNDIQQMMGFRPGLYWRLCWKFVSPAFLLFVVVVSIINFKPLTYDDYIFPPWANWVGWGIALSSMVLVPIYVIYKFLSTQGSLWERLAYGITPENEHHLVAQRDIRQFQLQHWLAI

h5-HT2C receptor [3] = target: T4, h5-HT2C receptor (Homo sapiens, UniProt P28335); assay: biochemical; format: binding
T4 sequence (P28335 33-458): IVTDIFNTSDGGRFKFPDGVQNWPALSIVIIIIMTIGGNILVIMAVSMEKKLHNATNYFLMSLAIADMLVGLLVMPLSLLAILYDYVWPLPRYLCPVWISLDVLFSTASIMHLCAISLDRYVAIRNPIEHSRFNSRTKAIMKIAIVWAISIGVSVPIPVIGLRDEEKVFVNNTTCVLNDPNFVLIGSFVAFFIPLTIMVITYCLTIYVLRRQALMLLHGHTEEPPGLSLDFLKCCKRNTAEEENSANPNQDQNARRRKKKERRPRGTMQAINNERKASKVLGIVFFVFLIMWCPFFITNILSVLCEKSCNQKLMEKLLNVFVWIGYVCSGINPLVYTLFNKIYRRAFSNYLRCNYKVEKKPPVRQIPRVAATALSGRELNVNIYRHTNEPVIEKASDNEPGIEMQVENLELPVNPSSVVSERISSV

hDAT [4] = target: T5, hDAT (Homo sapiens, UniProt Q01959); assay: Inhibition of [125I]RTI-55 binding, HEK-hDAT membranes
T5 sequence (Q01959 whole entry): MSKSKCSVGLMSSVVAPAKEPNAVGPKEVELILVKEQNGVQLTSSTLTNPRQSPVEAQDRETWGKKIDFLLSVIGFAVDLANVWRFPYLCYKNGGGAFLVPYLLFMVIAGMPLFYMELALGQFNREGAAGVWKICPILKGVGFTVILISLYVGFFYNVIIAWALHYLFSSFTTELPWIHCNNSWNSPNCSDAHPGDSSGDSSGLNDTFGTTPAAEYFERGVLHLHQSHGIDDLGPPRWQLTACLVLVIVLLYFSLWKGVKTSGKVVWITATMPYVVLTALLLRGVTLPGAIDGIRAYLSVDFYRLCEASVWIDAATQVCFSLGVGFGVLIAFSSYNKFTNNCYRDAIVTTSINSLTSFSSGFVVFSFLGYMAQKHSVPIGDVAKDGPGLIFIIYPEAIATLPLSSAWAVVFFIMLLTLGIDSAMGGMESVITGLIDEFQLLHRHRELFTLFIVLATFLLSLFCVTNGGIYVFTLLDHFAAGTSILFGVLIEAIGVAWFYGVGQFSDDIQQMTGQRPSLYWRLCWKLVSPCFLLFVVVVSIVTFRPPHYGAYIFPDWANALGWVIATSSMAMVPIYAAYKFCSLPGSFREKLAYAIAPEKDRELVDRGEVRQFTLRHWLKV

h5-HT1A receptor [5] = target: T6, h5-HT1A receptor (Homo sapiens, UniProt P08908); assay: [3H]8-OH-DPAT binding, HEK-h5-HT1A
T6 sequence (P08908 1-422): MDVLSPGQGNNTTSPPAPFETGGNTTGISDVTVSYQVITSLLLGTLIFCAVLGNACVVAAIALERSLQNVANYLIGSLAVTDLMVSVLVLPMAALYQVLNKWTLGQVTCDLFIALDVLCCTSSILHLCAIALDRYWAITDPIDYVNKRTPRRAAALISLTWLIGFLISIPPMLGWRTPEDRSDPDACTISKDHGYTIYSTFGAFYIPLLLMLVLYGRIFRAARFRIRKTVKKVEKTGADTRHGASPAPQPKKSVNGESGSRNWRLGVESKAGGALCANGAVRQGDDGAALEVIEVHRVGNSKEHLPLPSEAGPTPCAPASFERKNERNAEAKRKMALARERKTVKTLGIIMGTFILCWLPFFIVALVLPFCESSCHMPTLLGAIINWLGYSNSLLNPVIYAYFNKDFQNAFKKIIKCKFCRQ

hSERT [6] = target: T7, hSERT (Homo sapiens, UniProt P31645); assay: Inhibition of [3H]5-HT uptake, intact HEK-hSERT cells; format: cell-based
T7 sequence (P31645 whole entry): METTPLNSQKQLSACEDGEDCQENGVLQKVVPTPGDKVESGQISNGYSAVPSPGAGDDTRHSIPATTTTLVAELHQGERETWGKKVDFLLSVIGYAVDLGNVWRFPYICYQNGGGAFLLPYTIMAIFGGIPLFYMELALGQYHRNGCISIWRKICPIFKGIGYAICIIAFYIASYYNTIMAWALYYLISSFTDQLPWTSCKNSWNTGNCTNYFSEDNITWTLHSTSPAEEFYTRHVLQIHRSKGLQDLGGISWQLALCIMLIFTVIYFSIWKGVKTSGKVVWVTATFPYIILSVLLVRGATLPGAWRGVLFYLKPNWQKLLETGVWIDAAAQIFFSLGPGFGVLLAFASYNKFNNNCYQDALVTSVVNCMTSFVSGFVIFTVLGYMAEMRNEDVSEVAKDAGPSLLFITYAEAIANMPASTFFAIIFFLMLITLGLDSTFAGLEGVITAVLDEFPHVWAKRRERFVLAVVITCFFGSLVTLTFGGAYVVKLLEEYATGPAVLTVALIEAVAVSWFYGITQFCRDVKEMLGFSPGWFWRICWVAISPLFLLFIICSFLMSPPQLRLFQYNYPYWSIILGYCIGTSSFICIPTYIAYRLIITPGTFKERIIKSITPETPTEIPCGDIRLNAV

hSigma1 receptor [7] = target: T8, hSigma1 receptor (Homo sapiens, UniProt Q99720); details: read-out: hSigma1 Ki, published value; ref Lee et al., 2008; cited from earlier work
T8 sequence (Q99720 whole entry): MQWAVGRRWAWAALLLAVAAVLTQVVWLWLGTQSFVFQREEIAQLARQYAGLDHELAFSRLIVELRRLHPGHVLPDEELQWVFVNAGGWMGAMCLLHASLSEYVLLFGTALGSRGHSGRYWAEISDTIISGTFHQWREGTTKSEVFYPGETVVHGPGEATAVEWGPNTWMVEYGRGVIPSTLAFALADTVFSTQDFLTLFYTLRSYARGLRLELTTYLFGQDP

h5-HT2A receptor [8] = target: T1, h5-HT2A receptor; assay: [125I]DOI binding, HEK-h5-HT2A
hSERT [9] = target: T7, hSERT; assay: Superfusion release of preloaded [3H]5-HT from HEK-hSERT cells; format: cell-based
hSERT [10] = target: T7, hSERT; assay: Inhibition of [125I]RTI-55 binding, HEK-hSERT membranes
hSigma1 receptor [11] = target: T8, hSigma1 receptor; assay: [3H]; format: binding; details: Inhibition of [3H]pentazocine binding Ki ± sem, hSigma1
h5-HT2A receptor [12] = target: T1, h5-HT2A receptor; assay: Inhibition of 5-HT-stimulated IP-1 formation; format: cell-based
human DA D2 receptor = human DA D2 receptor (Homo sapiens, UniProt P14416); format: binding; details: test drugs up to the maximal concentration tested (10 µM)
human DA D2 receptor, sequence (P14416 whole entry, the tested form may be a part): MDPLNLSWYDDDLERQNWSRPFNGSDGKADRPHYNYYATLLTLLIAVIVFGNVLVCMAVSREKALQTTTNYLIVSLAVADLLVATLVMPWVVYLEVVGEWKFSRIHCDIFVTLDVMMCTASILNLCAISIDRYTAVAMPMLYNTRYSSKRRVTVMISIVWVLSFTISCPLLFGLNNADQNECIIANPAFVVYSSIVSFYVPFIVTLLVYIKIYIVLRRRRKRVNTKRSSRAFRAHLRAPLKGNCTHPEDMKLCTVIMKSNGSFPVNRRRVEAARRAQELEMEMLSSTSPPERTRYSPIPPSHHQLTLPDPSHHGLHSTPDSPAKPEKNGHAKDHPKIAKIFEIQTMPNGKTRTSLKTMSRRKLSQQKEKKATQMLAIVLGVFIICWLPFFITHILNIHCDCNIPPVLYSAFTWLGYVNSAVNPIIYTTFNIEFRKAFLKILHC

hDAT [13] = target: T5, hDAT; assay: Superfusion release of preloaded [3H]DA from HEK-hDAT cells; format: cell-based
hNET [14] = target: T3, hNET; assay: cell-based; format: cell-based
hVMAT2 [15] = target: T9, hVMAT2 (Homo sapiens, UniProt Q05940); assay: Inhibition of [3H]5-HT uptake, HEK-hVMAT2 membrane preparation; format: biochemical
T9 sequence (Q05940 whole entry): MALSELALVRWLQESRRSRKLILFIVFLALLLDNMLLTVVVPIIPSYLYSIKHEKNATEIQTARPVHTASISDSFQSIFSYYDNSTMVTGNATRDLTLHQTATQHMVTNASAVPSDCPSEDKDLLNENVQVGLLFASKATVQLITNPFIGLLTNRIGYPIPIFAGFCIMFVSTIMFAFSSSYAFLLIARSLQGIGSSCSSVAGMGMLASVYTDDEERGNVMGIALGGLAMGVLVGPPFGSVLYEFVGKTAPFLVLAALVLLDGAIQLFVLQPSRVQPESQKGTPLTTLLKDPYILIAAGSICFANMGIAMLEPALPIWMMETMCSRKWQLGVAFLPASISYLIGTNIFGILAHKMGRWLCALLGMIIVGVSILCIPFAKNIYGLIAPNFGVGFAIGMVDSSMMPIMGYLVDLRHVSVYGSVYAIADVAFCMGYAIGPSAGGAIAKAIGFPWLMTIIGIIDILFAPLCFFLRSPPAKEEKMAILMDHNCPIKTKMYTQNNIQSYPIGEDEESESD

human DA D1 receptor = human DA D1 receptor (Homo sapiens, UniProt P21728); assay: [3H]SCH23390 binding, LhD1 cells; details: test drugs up to the maximal concentration tested (10 µM)
human DA D1 receptor, sequence (P21728 whole entry): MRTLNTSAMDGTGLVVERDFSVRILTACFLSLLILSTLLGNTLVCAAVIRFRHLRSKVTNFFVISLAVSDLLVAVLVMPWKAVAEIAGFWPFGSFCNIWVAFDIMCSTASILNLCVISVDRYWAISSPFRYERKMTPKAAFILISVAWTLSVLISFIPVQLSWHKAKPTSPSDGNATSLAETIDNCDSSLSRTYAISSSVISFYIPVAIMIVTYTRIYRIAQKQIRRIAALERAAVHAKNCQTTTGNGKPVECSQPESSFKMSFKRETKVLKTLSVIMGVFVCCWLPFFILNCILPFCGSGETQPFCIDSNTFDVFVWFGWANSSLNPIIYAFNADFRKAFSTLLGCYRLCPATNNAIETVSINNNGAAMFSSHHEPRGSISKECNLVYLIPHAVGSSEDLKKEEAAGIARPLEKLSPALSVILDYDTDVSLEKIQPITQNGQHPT

hVMAT2 [16] = target: T9, hVMAT2; assay: Inhibition of [3H]DHTB binding, HEK-hVMAT2 membranes
human DA D3 receptor = human DA D3 receptor (Homo sapiens, UniProt P35462); assay: [3H]YM-09151-2 binding, CHOp-D3 cells; details: test drugs up to 10 µM; words give concentration range, 'low' = low nanomolar
human DA D3 receptor, sequence (P35462 whole entry): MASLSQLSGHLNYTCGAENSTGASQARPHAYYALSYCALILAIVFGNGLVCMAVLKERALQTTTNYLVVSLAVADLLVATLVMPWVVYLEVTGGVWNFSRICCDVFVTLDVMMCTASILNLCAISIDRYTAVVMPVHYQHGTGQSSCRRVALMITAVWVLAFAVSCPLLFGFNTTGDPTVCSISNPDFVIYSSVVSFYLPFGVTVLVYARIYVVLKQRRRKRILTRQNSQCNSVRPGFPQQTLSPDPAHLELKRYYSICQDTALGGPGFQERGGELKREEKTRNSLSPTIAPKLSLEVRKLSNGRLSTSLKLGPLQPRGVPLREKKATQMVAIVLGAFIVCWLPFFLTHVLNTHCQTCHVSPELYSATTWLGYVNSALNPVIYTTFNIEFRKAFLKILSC

h5-HT1A receptor [17] = target: T6, h5-HT1A receptor; assay: Stimulation of [35S]GTPγS binding, HEK-h5-HT1A membranes; format: biochemical
h5-HT2C receptor [18] = target: T4, h5-HT2C receptor; format: cell-based; details: data not shown
h5-HT2C receptor [19] = target: T4, h5-HT2C receptor; assay: Inhibition of 5-HT-stimulated IP-1 formation; format: cell-based
hNET [20] = target: T3, hNET; assay: biochemical; format: binding
hDAT [21] = target: T5, hDAT; assay: Inhibition of [3H]DA uptake, intact HEK-hDAT cells; format: cell-based
hVMAT2 [22] = target: T9, hVMAT2; assay: Superfusion release of preloaded [3H]NE from HEK-hVMAT2 cells; format: cell-based
hNET [23] = target: T3, hNET; details: read-out: Kd of radioligand, HEK-hNET; ref Eshleman et al., 1999; cited from earlier work
hDAT [24] = target: T5, hDAT; details: read-out: Kd of radioligand, HEK-hDAT; ref Eshleman et al., 1999; cited from earlier work
hSERT [25] = target: T7, hSERT; details: read-out: Kd of radioligand, HEK-hSERT; ref Eshleman et al., 1999; cited from earlier work

T1 sequence (P28223 whole entry): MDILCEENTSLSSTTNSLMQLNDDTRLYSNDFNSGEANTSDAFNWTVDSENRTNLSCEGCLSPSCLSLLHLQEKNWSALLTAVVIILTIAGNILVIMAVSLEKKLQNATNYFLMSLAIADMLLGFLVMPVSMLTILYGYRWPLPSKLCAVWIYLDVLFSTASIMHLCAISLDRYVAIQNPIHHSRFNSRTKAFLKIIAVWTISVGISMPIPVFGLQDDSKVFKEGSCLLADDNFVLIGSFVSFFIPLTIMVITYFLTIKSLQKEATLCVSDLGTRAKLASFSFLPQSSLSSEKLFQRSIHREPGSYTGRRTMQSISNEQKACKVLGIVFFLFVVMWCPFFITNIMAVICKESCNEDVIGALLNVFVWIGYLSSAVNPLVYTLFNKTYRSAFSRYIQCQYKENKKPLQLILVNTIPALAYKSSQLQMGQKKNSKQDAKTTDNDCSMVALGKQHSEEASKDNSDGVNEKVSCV

## CN[C@@H](C)Cc1ccccc1 [METH, (+)methamphetamine, reference compound]
h5-HT2A receptor [1]
  h5-HT2A agonist activity, inositol monophosphate: partial agonist activity at millimolar concentrations
Human D4.4 receptor
  affinity for the [3H]YM-09151-2 binding site, DA D4.4 receptor: no measurable affinity
hNET [2]
  EC50: 0.128 ± 0.036 µM
hNET [2]; relative to maximal AUC induced by METH (0.3 or 1 µM)
  % maximum release ± sem, hNET [3H]NE: 92.7 ± 5.2%
h5-HT2C receptor [3]
  Ki: 10.2 ± 2.9 µM
hDAT [4]
  Ki: 3.96 ± 0.92 µM
h5-HT1A receptor [5]
  Ki: 5.9 ± 0.85 µM
hSERT [6]
  IC50: 4.1 ± 1.3 µM
hSERT [6]; [125I]RTI-55 Ki / [3H]5-HT uptake IC50
  ratio of binding Ki to uptake IC50, hSERT: 59
hSigma1 receptor [7]
  Ki: 5.2 µM
h5-HT2A receptor [8]
  Ki: 43.5 ± 9.1 µM
hSERT [9]
  % maximum release ± sem, hSERT [3H]5-HT: 97.6 ± 7.2%
  EC50: 22.4 ± 0.24 µM
hSERT [9]; EC50 compared to PCA
  fold less potent than PCA to induce [3H]5-HT release: 28 fold
hSERT [10]
  Ki: 241 ± 8.9 µM
hSigma1 receptor [11]
  Ki: 3.18 ± 0.74 µM
h5-HT2A receptor [12]
  IC50: 112 ± 12 µM
h5-HT2A receptor [12]; 100 nM 5-HT, normalized to maximal inhibition by ketanserin (10 µM)
  h5-HT2A Inhibition of 5-HT-stimulated IP-1 formation % maximum inhibition ± sem: 100.0 ± 0.0%
Human DA D2 receptor
  affinity for the [3H]YM-09151-2 binding site, DA D2 receptor: no measurable affinity
hDAT [13]
  EC50: 0.4 ± 0.12 µM
hDAT [13]; relative to maximal AUC induced by METH (1 or 10 µM)
  % maximum release ± sem, hDAT [3H]DA: 101.9 ± 4.9%
hNET [14]
  IC50: 0.026 ± 0.0077 µM
  ratio of binding Ki to uptake IC50, hNET: 53
hVMAT2 [15]
  IC50: 4.72 ± 0.61 µM
Human DA D1 receptor
  affinity for the [3H]SCH23390 binding site, DA D1 receptor: no measurable affinity
hVMAT2 [16]
  Ki: 920 ± 110 µM
Human DA D3 receptor
  affinity for the [3H]YM-09151-2 binding site, DA D3 receptor: no measurable affinity
h5-HT1A receptor [17]
  EC50: 18.1 ± 4.2 µM
h5-HT1A receptor [17]; read-out: h5-HT1A Stimulation of [35S]GTPγS binding % maximum stimulation ± sem
  Emax: 66%
h5-HT2C receptor [18]
  h5-HT2C agonist activity, inositol monophosphate: partial agonists with midmicromolar potencies
h5-HT2C receptor [19]
  IC50: > 1000 µM
h5-HT2C receptor [19]; 100 nM 5-HT, normalized to maximal inhibition by SB242084 (1 µM)
  h5-HT2C Inhibition of 5-HT-stimulated IP-1 formation % maximum inhibition ± sem: < 3%
hNET [20]
  Ki: 1.39 ± 0.12 µM
hDAT [21]
  IC50: 0.026 ± 0.01 µM
hDAT [21]; [125I]RTI-55 Ki / [3H]DA uptake IC50
  ratio of binding Ki to uptake IC50, hDAT: 152
hVMAT2 [22]
  EC50: 79 ± 29 µM
  Release of [3H]NE % maximum release ± sem or range, hVMAT2: 95.5 ± 2.1%

## COC(=O)[C@H]1[C@@H](c2ccc(I)cc2)C[C@@H]2CC[C@H]1N2C [[^125I]RTI-55]
hNET [23]
  Kd: 0.0121 ± 0.0019 µM
hDAT [24]
  Kd: 0.00183 ± 0.00021 µM
hSERT [25]
  Kd: 0.00098 ± 0.00016 µM
